Assay results as given in patent US11414431B2, “Substituted pyrazolo[1,5-a]pyrimidines as TYK2 inhibitors” (Nimbus Lakshmi, Inc., priority 2018, dated 2022).
Like-named read-outs stand apart in the source and are kept apart here.

Experiments:
TYK2 = TYK2 (Homo sapiens (Human), UniProt P29597); assay: TYK2 Radioactive Kinase Assay; type: biochemical; details: read-out: TYK2 (% Inhibition at 10 μM)
[1] = tested on: IL-12 induced STAT4 phosphorlyation mediated by TYK2/JAK2; assay: IL-12 Induced pSTAT4 in Human PBMC; type: cell-based; details: 0.5 h, 1.7 ng/mL IL-12 for 30 minutes
How it was run: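 pSTAT4 and total STAT4 quantified by MSD in lysates of cryopreserved human PBMC after 30-minute stimulation with 1.7 ng/mL IL-12 (final). Compound was added 1 hr beforehand at 37° C, 0.1% DMSO final.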

JAK2 = JAK2 (Homo sapiens (Human), UniProt O60674); assay: JAK2 Radioactive Kinase Assay; type: biochemical; details: read-out: JAK2 (% Inhibition at 10 μM)
JAK2, sequence (O60674 whole entry): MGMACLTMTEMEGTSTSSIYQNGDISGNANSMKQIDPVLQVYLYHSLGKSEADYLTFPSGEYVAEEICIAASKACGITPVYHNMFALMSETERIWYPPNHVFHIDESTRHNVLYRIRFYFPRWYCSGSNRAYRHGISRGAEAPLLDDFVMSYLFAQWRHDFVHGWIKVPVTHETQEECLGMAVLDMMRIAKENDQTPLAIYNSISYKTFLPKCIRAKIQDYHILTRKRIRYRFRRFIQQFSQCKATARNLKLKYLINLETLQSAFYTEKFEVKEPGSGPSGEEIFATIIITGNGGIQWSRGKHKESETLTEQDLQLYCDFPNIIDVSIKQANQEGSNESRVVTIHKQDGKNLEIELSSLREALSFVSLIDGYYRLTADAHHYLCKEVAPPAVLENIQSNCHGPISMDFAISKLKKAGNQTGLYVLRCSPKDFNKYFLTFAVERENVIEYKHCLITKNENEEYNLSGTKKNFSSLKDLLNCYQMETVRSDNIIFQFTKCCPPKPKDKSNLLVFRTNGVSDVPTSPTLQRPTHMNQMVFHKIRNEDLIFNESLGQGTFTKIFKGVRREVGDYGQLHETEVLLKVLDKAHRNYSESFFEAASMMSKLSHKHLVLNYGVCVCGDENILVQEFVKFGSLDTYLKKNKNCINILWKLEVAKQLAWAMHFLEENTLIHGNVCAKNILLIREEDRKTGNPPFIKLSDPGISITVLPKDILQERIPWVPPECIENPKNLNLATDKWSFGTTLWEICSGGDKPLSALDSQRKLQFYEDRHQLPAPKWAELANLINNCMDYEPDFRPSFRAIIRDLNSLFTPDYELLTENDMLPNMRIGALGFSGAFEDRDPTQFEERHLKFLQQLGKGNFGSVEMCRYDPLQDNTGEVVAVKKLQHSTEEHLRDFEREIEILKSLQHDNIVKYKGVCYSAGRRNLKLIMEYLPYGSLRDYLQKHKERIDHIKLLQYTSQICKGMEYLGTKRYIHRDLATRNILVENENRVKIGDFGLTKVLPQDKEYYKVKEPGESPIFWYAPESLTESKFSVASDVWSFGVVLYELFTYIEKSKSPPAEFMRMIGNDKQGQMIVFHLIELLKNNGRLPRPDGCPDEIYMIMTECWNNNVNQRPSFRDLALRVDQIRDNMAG
Protocol: Peptide substrate, [[…]], (20 μM) was prepared in reaction buffer (20 mM Hepes pH 7.5, 10 mM MgCl2, 1 mM EGTA, 0.02% Brij35, 0.02 mg/mL BSA, 0.1 mM […], 2 mM DTT, 1% DMSO. TYK2 (Invitrogen) kinase was added, followed by compounds in DMSO. 33PATP was added to initiate the reaction in ATP at […]. Kinase reaction was incubated for 120 min at room temp and reactions were spotted onto P^81 ion exchange paper (Whatman #3698-915), and then washed extensively in 0.75% phosphoric acid, prior to reading the radioactivity counts. For JAK2 (Invitrogen) kinase assay the peptide substrate poly[Glu:Tyr] (4:1), 0.2 mg/mL was used, in the reaction carried out the same as for TYK2.

[2] = molecular target: human TYK2 (JH2domain-pseudokinase) (Homo sapiens (Human), UniProt P29597); assay: TYK2 JH2 Domain Binding Assay (KINOMEscan); details: 11-point 3-fold dilution, top concentration 30,000 nM, duplicate; read-out: hTYK2_JH2_Binding (Kd; nM)
human TYK2 (JH2domain-pseudokinase), sequence (P29597 556-888): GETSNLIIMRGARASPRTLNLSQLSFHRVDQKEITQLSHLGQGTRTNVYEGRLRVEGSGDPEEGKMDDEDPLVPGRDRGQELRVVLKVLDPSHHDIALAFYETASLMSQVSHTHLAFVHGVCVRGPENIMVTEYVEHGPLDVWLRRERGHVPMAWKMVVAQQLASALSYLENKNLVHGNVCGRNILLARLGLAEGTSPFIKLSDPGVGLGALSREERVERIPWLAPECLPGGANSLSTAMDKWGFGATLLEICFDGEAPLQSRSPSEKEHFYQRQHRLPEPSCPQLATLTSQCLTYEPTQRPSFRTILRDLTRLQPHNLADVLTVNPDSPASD
How it was run: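 KINOMEscan competition binding: HEK293-expressed NFkB-fused TYK2 JH2 (G556–D888), DNA-tagged, against immobilized ligand beads, 1 h shaking at room temperature, 0.9% DMSO. Bound kinase quantified by qPCR.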

[3] = compound at 10 μM, peptide substrate […]
[4] = compound at 10 μM, substrate poly[Glu:Tyr] (4:1)

TYK2, sequence (P29597 whole entry): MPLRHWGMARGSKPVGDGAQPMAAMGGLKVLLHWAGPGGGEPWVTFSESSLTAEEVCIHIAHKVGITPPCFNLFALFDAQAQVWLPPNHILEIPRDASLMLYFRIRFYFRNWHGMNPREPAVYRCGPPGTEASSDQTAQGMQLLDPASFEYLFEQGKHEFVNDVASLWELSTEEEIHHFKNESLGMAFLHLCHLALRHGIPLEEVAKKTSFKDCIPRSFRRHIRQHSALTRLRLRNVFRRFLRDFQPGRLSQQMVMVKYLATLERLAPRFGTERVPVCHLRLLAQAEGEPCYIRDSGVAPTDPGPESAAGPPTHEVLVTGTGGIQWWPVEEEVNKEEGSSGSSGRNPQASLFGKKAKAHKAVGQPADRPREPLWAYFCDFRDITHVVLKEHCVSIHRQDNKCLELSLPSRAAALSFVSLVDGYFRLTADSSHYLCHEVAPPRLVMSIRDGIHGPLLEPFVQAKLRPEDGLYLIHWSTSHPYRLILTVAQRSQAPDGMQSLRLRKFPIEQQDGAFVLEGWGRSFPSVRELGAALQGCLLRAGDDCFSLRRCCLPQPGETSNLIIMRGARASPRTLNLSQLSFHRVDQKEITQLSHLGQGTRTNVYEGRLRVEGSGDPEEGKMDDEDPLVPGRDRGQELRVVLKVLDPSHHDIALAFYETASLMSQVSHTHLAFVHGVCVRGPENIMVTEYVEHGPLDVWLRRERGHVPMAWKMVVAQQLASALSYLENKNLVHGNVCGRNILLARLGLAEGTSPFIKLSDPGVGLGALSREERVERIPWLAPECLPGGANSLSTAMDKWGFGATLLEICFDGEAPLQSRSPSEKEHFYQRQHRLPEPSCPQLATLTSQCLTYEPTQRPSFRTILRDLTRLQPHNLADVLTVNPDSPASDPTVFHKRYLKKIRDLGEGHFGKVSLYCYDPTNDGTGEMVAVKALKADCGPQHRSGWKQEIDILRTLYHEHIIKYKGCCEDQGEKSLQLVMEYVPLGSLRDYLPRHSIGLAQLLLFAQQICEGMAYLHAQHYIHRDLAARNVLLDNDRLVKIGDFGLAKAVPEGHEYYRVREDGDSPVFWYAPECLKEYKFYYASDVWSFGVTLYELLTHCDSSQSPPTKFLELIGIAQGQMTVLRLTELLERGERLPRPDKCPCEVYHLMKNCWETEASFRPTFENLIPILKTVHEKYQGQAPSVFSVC

| Compound | inhibition at 10 µM (TYK2; [3]) [%] | IC50 [1] [µM] | inhibition at 10 µM (JAK2; [4]) [%] | Kd [2] [nM] | inhibition at 10 µM (TYK2) [%] | inhibition at 10 µM (JAK2) [%] |
| --- | --- | --- | --- | --- | --- | --- |
| CNc1cc(Nc2cccn([C@H]3[C@@H]4COC[C@@H]43)c2=O)nc2c(C(=O)NC3C[C@H]3OC)cnn12 (mixture of isomers) [Compound I-24, 5-((1-((1R,5S,6r)-3-Oxabicyclo[3.1.0]hexan-6-yl)-2-oxo-1,2-dihydropyridin-3-yl)amino)-N-(2-methoxycyclopropyl)-7-(methylamino)pyrazolo[1,5-a]pyrimidine-3-carboxamide] | < 50 | < 0.1 | < 50 |  |  |  |
| CNc1cc(Nc2cccn(C3CCC[C@@](C)(O)C3)c2=O)nc2c(C(=O)N[C@@H]3C[C@@H]3F)cnn12 (stereo partly drawn) [Compound I-6, N-((1R,2S)-2-Fluorocyclopropyl)-5-((1-(3-hydroxy-3-methylcyclohexyl)-2-oxo-1,2-dihydropyridin-3-yl)amino)-7-(methylamino)pyrazol[1,5-a]pyrimidine-3-carboxamide] | < 50 |  | < 50 |  |  |  |
| CNc1cc(Nc2cccn([C@H]3C[C@H](F)C3)c2=O)nc2c(C(=O)N[C@@H]3C[C@@H]3F)cnn12 [Compound I-7, 5-((1-((1r,3R)-3-Fluorocyclobutyl)-2-oxo-1,2-dihydropyridin-3-yl)amino)-N-((1R,2S)-2-fluorocyclopropyl)-7-(methylamino)pyrazolo[1,5-a]pyrimidine-3-carboxamide] | < 50 | < 0.1 | < 50 |  |  |  |
| CNc1cc(-c2cn(C3CCOCC3)c3ncc(F)cc23)nc2c(C(=O)N[C@H]3CC[C@@H]3O)cnn12 [Compound I-18, 5-(5-Fluoro-1-(tetrahydro-2H-pyran-4-yl)-1H-pyrrolo[2,3-b]pyridin-3-yl)-N-((1S,2S)-2-hydroxycyclobutyl)-7-(methylamino)pyrazolo[1,5-a]pyrimidine-3-carboxamide] | < 50 |  | < 50 | < 0.2 |  |  |
| CNc1cc(-c2cn(C3CCOCC3)c3ncc(F)cc23)nc2c(C(=O)N[C@@H]3CC[C@H]3O)cnn12 [Compound I-19, 5-(5-Fluoro-1-(tetrahydro-2H-pyran-4-yl)-1H-pyrrolo[2,3-b]pyridin-3-yl)-N-((1R,2R)-2-hydroxycyclobutyl)-7-(methylamino)pyrazolo[1,5-a]pyrimidine-3-carboxamide] | < 50 |  | < 50 | 0.2 to 1 |  |  |
| CNc1cc(Nc2cccn(C3CC(F)(F)C3)c2=O)nc2c(C(=O)NC3C[C@H]3OC)cnn12 (stereo partly drawn) [Compound I-33, 5-((1-(3,3-Difluorocyclobutyl)-2-oxo-1,2-dihydropyridin-3-yl)amino)-N-((trans-1,2)-2-methoxycyclopropyl)-7-(methylamino)pyrazolo[1,5-a]pyrimidine-3-carboxamide] | < 50 | < 0.1 | < 50 |  |  |  |
| CNc1cc(Nc2cccn([C@H]3C[C@H](F)C3)c2=O)nc2c(C(=O)NC3CC[C@@H]3OC)cnn12 (stereo partly drawn) [Compound I-46, 5-((1-((1r,3S)-3-Fluorocyclobutyl)-2-oxo-1,2-dihydropyridin-3-yl)amino)-N-((trans-1,2)-2-methoxycyclobutyl)-7-(methylamino)pyrazolo[1,5-a]pyrimidine-3-carboxamide] |  | < 0.1 |  |  | < 50 | < 50 |

Further lines, with some results ahead:

| inhibition at 10 µM (TYK2; [3]) [%] | IC50 [1] [µM] | inhibition at 10 µM (JAK2; [4]) [%] | Kd [2] [nM] | Compound | inhibition at 10 µM (TYK2) [%] | inhibition at 10 µM (JAK2) [%] |
| --- | --- | --- | --- | --- | --- | --- |
| < 50 |  | < 50 |  | CNc1cc(Nc2cccn([C@H]3C[C@H](F)C3)c2=O)nc2c(C(=O)NC3CC[C@@H](OC)C3)cnn12 (mixture of isomers) [Compound I-66, 5-((1-((1r,3R)-3-Fluorocyclobutyl)-2-oxo-1,2-dihydropyridin-3-yl)amino)-N-(3-methoxycyclopentyl)-7-(methylamino)pyrazolo[1,5-a]pyrimidine-3-carboxamide] |  |  |
| < 50 |  | < 50 | 0.2 to 1 | CNc1cc(Nc2cccn(C3CC(F)(F)C3)c2=O)nc2c(C(=O)N[C@@H]3CC[C@H](O)C3)cnn12 [Compound I-36, 5-((1-(3,3-Difluorocyclobutyl)-2-oxo-1,2-dihydropyridin-3-yl)amino)-N-((1R,3S)-3-hydroxycyclopentyl)-7-(methylamino)pyrazolo[1,5-a]pyrimidine-3-carboxamide] |  |  |
| < 50 |  | < 50 | 0.2 to 1 | CNc1cc(Nc2cccn(C3CC(F)(F)C3)c2=O)nc2c(C(=O)N[C@H]3CC[C@@H](O)C3)cnn12 [Compound I-37, 5-((1-(3,3-Difluorocyclobutyl)-2-oxo-1,2-dihydropyridin-3-yl)amino)-N-((1S,3R)-3-hydroxycyclopentyl)-7-(methylamino)pyrazolo[1,5-a]pyrimidine-3-carboxamide] |  |  |
| < 50 |  | < 50 | > 10 | CNc1cc(Nc2cccn(C3CC(F)(F)C3)c2=O)nc2c(C(=O)N[C@H]3CC[C@@H]3OC)cnn12 [Compound I-47, 5-((1-(3,3-Difluorocyclobutyl)-2-oxo-1,2-dihydropyridin-3-yl)amino)-N-((1S,2S)-2-methoxycyclobutyl)-7-(methylamino)pyrazolo[1,5-a]pyrimidine-3-carboxamide] |  |  |
| < 50 |  | < 50 | 0.2 to 1 | CNc1cc(Nc2cccn(C3CC(F)(F)C3)c2=O)nc2c(C(=O)N[C@H]3COC[C@H]3O)cnn12 [Compound I-58, 5-((1-(3,3-Difluorocyclobutyl)-2-oxo-1,2-dihydropyridin-3-yl)amino)-N-((3S,4S)-4-hydroxytetrahydrofuran-3-yl)-7-(methylamino)pyrazolo[1,5-a]pyrimidine-3-carboxamide] |  |  |
| < 50 |  | < 50 | 1 to 10 | CNc1cc(Nc2cccn(C3CC(F)(F)C3)c2=O)nc2c(C(=O)N[C@@H]3COC[C@@H]3O)cnn12 [Compound I-59, 5-((1-(3,3-Difluorocyclobutyl)-2-oxo-1,2-dihydropyridin-3-yl)amino)-N-((3R,4R)-4-hydroxytetrahydrofuran-3-yl)-7-(methylamino)pyrazolo[1,5-a]pyrimidine-3-carboxamide] |  |  |
| < 50 |  | < 50 |  | CNc1cc(Nc2cccn(C3CC(F)(F)C3)c2=O)nc2c(C(=O)N[C@@H]3CCC[C@@H](O)C3)cnn12 [Compound I-62, 5-((1-(3,3-Difluorocyclobutyl)-2-oxo-1,2-dihydropyridin-3-yl)amino)-N-((1R,3R)-3-hydroxycyclohexyl)-7-(methylamino)pyrazolo[1,5-a]pyrimidine-3-carboxamide] |  |  |
| < 50 |  | < 50 |  | CNc1cc(Nc2cccn(C3CC(F)(F)C3)c2=O)nc2c(C(=O)N[C@H]3CCC[C@H](O)C3)cnn12 [Compound I-63, 5-((1-(3,3-Difluorocyclobutyl)-2-oxo-1,2-dihydropyridin-3-yl)amino)-N-((1S,3S)-3-hydroxycyclohexyl)-7-(methylamino)pyrazolo[1,5-a]pyrimidine-3-carboxamide] |  |  |
| < 50 |  | < 50 |  | CNc1cc(Nc2cccn(-c3ccccn3)c2=O)nc2c(C(=O)N[C@@H]3CC[C@@H](OC)C3)cnn12 [Compound I-67, N-((1R,3R)-3-Methoxycyclopentyl)-7-(methylamino)-5-((2-oxo-2H-[1,2′-bipyridin]-3-yl)amino)pyrazolo[1,5-a]pyrimidine-3-carboxamide] |  |  |
